Like-named read-outs stand apart in the source and are kept apart here.
How the values were obtained:
[1] = test system: MCF-7 breast cancer cells; set-up: method as in doi:10.1016/j.bionut.2013.04.001; conditions: cited from earlier work
[2] = iCELLigence real-time cell analysis; type: cell-based, human; conditions: human, MCF-12A, 20 μM, relative to control, read-out: cell viability (% ± SEM)
Description: (§1) Therefore, compound 6j was applied in serial doses (2, 5, 10, 20, 50, and 100 μM) to MCF-7 cells and parallel to MCF-12A cells to determine the selectivity and safety. The treatments were performed 24 h after seeding the cells on system-specific biosensor-based plates. A total of 120 h of analyses were monitored, with cell viability measurements taken every 15 min. […] In addition, the viability percentage values for each dose in these periods were calculated and are summarized in Table 3 for MCF-7 and Table 4 for MCF-12A. […] In these treatments, cells were not killed dramatically after adding the highest two doses of 6j (100 and 50 μM); instead, they entered the stationary phase.
(§2) MCF-7 (Cat. no. HTB-22) (human estrogen receptor-positive breast cancer) and MCF-12A (Cat. no. CRL-10782) (human non-tumorigenic mammary epithelial) cell lines were obtained from the American Type Culture Collection (ATCC, Rockville, Maryland, USA). MCF-7 cells were maintained in Dulbecco’s modified Eagle’s medium (DMEM) (Biological Industries, Haemek, Israel) supplemented with 10% heat-inactivated fetal bovine serum (FBS) (Biowest, Nuaillé, France), 2 mM L-glutamine (Biological Industries, Haemek, Israel), 100 U/mL penicillin and 100 μg/mL streptomycin (Gibco, Waltham, MA, USA), and 2.5 μg/mL plasmocin (Invivogen, Toulouse, France) at 37 °C in a 5% CO2 humidified incubator. MCF-12A cells were cultured in a DMEM/F-12 Nutrient Mixture (Ham) (DMEM/F12 1:1 with HEPES and L-glutamine) (Gibco, Waltham, MA, USA) with 10% heat-inactivated FBS, 100 U/mL penicillin, 100 μg/mL streptomycin, and 10 μg/mL insulin (Humulin R, Lilly, Indianapolis, USA), 20 ng/mL epidermal growth factor (Abcam, Cambridge, UK), […] hydrocortisone (Dekort, Deva Ilac, Istanbul, Turkey), and 2.5 μg/mL plasmocin in a humidified atmosphere of 5% CO2 at 37 °C. The cells were routinely cultured in cell culture flasks and checked regularly under an inverted microscope. Cells reaching 80% confluency were passaged by treatment with 0.25% trypsin–EDTA. Total cell numbers were counted by the trypan blue dye exclusion method using a hemocytometer prior to the experiments.
(§3) The iCELLigence real-time cell analysis system was used to conduct a real-time and label-free examination of the activities of compound 6j on cells as we previously described.[62] In brief, following a background measurement with 200 μL of complete medium on iCELLigence E-plate L8, 100 μL of MCF-7 or MCF-12A cells was seeded at a density of 5.0 × 10^3 per well. During the 120 h monitoring, the system took impedance measurements via biosensors every 15 min. At the 24th h of incubation, the cells were treated with increasing concentrations of the 6j compound (2, 5, 10, 20, 50, and 100 μM) in duplicate. For cell culture experiments, compound 6j was dissolved in DMSO (Sigma, St. Louis, USA) at a stock concentration of 20 mM. For treatments, dilutions were prepared from 20 mM stock with a cell growth medium, with a final DMSO concentration of 0.1%. The medium containing 0.1% DMSO was also used as a negative control. […] Data were recorded by the iCELLigence software for 120 h and analyzed at the end of the study.

[3] = test system: MCF-7 cells; assay: iCELLigence real-time cell analysis; type: cell-based, human; conditions: Homo sapiens, MCF7, MCF-7, 20 μM, relative to control, read-out: cell viability (% ± SEM)
Description: as §1, §2, §3

[4] = test system: estrogen-induced uterotrophic effect; assay: In vivo anti-estrogenic (anti-uterotrophic) activity, immature rat model; set-up: species or system Wistar immature female rats; conditions: oral, 20 mg/kg (tamoxifen 20 mg/kg/day, 6j equimolar per method), 3 days, with estradiol 10 μg/kg/day s.c.; immature female rats
Description: The anti-estrogenic activity was assessed as previously described.[65]−[67] All experiments were carried out in accordance with the recommendations of the […] Animal Care and Use Committee. The experimental protocol was approved by “The Commission on the Ethics of Scientific Research”, Faculty of Pharmacy, Minia University (no. ES30/2021). 20-day-old Wistar immature female rats (40–50 g) from the animal care facility of Nahda University at Beni Suef (NUB) were allowed to acclimatize to lab conditions for 3 days before the experiment with free access to food and water. Estradiol was diluted in olive oil and subcutaneously injected on the loose dorsal skin in a dose of 10 μg/kg/day. […] Both compounds were dissolved in a mixture of DMSO, Tween 20, and saline (1:1:8, respectively) and orally administered. The rats were randomly assigned to […] (n = 6) subjected to daily s.c. injections of estradiol, except for the control group. […] On the 4th day, all rats were sacrificed by cervical dislocation, and the uteri were dissected free of fat and weighed immediately. […] The results were expressed as percent inhibition from the formula [drawing 1] […] It is noteworthy that doses of the tested compounds are calculated on a molar basis. […] Values are expressed as mean ± SEM.

Structure (SMILES)	IC50 [1]	viability at 72 h, 20 µM ([2]; MCF-12A cells (non-tumorigenic mammary epithelial), 72 h)	viability at 96 h, 20 µM ([2]; MCF-12A cells (non-tumorigenic mammary epithelial), 96 h)	viability at 24 h, 20 µM ([2]; MCF-12A cells, 24 h)	viability at 48 h, 20 µM ([2]; MCF-12A cells, 48 h)	viability at 20 µM ([3]; 24 h)	viability at 20 µM ([3]; 48 h)	viability at 20 µM ([3]; 72 h)	viability at 20 µM ([3]; 96 h)	anti-uterotrophic activity (inhibition of estrogen-induced uterine weight) [4]
COc1ccc(C(=O)/C=C2/C(=O)Nc3ccc(Cl)cc32)cc1OC [Compound III]	3.59 µM	–	–	–	–	–	–	–	–	–
CC/C(=C(\c1ccccc1)c1ccc(OCCN(C)C)cc1)c1ccccc1 [tamoxifen, reference compound]	–	84 ± 0.01%	84 ± 0.01%	84 ± 0.01%	84 ± 0.01%	86.84 ± 0.02%	86.84 ± 0.02%	85.59 ± 0.04%	80.31 ± 0.07%	50%

— publication PMC9948168, “Vanillin-Based Indolin-2-one Derivative Bearing a Pyridyl Moiety as a Promising Anti-Breast Cancer Agent via Anti-Estrogenic Activity” (ACS Omega, 2023)
